Data from patent publication US20090069320A1, “Substituted 4-Amino-Quinazoline Compounds with Metabotropic Glutamate Receptor Regulating Activity and Uses Thereof” (Gruenenthal GmbH, priority 2006, published 2009).

molecular target: T1, mGluR5 receptor (Sus scrofa, UniProt I3LUI7); test: [3H]-MPEP mGluR5 receptor binding assay (pig brain homogenate); conditions: 5 nM [3H]-MPEP, read-out: IC50 mGluR5 Receptor (pig) [^3H]-MPEP Bond
T1 construct: 450 μg of protein from brain homogenate with 5 nM ^3[H]-MPEP; from tissue; host or cells: pig brain halves without medulla, cerebellum and pons
Procedure, shortened: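 Compounds at 10 μM competed with 5 nM [3H]-MPEP for binding to pig brain membranes (450 μg protein) for 60 min at room temperature in pH 8.0 Hepes buffer. Bound radioactivity was collected on glass-fibre filters and read by β-counting, with 10 μM unlabelled MPEP giving non-specific binding.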

T1 sequence (I3LUI7 19-1212): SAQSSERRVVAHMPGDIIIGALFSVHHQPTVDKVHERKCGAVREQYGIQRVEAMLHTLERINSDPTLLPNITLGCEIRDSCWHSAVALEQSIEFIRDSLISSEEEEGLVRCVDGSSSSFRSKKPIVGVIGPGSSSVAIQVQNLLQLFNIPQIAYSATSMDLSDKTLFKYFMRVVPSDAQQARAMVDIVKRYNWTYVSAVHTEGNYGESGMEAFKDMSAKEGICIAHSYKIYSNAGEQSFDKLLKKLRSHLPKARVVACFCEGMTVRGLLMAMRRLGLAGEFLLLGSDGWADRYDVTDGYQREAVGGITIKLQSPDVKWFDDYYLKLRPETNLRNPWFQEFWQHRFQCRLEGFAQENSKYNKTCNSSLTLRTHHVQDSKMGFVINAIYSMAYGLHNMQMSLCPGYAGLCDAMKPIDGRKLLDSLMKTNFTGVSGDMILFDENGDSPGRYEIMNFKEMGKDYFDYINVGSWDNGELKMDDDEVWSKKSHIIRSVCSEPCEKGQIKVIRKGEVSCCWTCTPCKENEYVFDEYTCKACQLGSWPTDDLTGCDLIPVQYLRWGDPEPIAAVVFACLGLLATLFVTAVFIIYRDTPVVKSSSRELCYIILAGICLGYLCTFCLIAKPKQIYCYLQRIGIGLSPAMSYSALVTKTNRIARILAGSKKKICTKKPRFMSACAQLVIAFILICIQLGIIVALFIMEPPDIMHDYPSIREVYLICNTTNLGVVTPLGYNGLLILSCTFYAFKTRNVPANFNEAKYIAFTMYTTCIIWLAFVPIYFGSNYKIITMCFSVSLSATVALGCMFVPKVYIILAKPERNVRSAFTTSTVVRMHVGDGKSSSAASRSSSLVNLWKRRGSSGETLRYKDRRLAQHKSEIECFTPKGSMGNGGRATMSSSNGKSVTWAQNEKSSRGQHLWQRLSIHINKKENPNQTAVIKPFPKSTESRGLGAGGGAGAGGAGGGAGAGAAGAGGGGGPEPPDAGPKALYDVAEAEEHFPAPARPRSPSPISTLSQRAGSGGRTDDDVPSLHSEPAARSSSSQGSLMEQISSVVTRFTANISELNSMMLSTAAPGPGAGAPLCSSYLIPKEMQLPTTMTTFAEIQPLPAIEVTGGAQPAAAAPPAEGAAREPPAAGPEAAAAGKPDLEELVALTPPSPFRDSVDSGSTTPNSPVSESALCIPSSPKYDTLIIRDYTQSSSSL

Q: With `CC(=O)N(Cc1cc(-c2ccc3ncnc(NC4CC4)c3c2)ccc1Cl)C1CC1` [Example 777, N-(2-chloro-5-(4-(cyclopropylamino)quinazolin-6-yl)benzyl)-N-cyclopropyl acetamide] as the compound, how does the IC50 read?
A: 50 nM

same assay, conditions: 10 μM compound, 5 nM [3H]-MPEP

Q: `O=S(=O)(c1c(F)c(F)c(F)c(F)c1F)N(Cc1cccc(-c2cc(F)c3ncnc(NC4CC4)c3c2)c1)C1CC1` [Example 761, N-cyclopropyl-N-(3-(4-(cyclopropylamino)-8-fluoroquinazolin-6-yl)benzyl)-2,3,4,5,6-pentafluorobenzole sulfonamide] was tested. Which “% Inhibition of mGluR5 Receptor (pig) [^3H]-MPEP Bond at 10 μM” value (from here on “% Inhibition of mGluR5 Receptor (pig)”) did it give?
A: 45%

Q: `O=C(c1ccno1)N(Cc1cc(-c2ccc3ncnc(NC4CC4)c3c2)ccc1Cl)C1CC1` [Example 762, N-(2-chloro-5-(4-(cyclopropylamino)quinazolin-6-yl)benzyl)-N-cyclopropyl isoxazole-5-carboxamide] was tested. Which “% Inhibition of mGluR5 Receptor (pig)” value did it give?
A: 91%

Q: For `O=C(c1ccncc1)N(Cc1cc(-c2ccc3ncnc(NC4CC4)c3c2)ccc1Cl)C1CC1` [Example 763, N-(2-chloro-5-(4-(cyclopropylamino)quinazolin-6-yl)benzyl)-N-cyclopropyl isonicotinamide], which “% Inhibition of mGluR5 Receptor (pig)” value is on record?
A: 86%

Q: `CS(=O)(=O)N(Cc1cc(-c2ccc3ncnc(NC4CC4)c3c2)ccc1Cl)C1CC1` [Example 764, N-(2-chloro-5-(4-(cyclopropylamino)quinazolin-6-yl)benzyl)-N-cyclopropyl methane sulfonamide] was tested. Which “% Inhibition of mGluR5 Receptor (pig)” value did it give?
A: 87%

Q: How did the “% Inhibition of mGluR5 Receptor (pig)” value turn out when `O=C(c1cccnc1)N(Cc1cc(-c2ccc3ncnc(NC4CC4)c3c2)ccc1Cl)C1CC1` [Example 770, N-(2-chloro-5-(4-(cyclopropylamino)quinazolin-6-yl)benzyl)-N-cyclopropyl nicotinamide] was run?
A: 84%

Q: For `O=S(=O)(c1cccc(C(F)(F)F)c1)N(Cc1cc(-c2ccc3ncnc(NC4CC4)c3c2)ccc1Cl)C1CC1` [Example 778, N-(2-chloro-5-(4-(cyclopropylamino)quinazolin-6-yl)benzyl)-N-cyclopropyl-3-(trifluoromethyl)benzole sulfonamide], which “% Inhibition of mGluR5 Receptor (pig)” value is on record?
A: 84%

Q: How did the “% Inhibition of mGluR5 Receptor (pig)” value turn out when `O=S(=O)(c1ccc(Cl)cc1Cl)N(Cc1cccc(-c2cc(F)c3ncnc(NC4CC4)c3c2)c1)C1CC1` [Example 782, 2,4-dichloro-N-cyclopropyl-N-(3-(4-(cyclopropylamino)-8-fluoroquinazolin-6-yl)benzyl)benzole sulfonamide] was run?
A: 50%

Q: `O=C(c1ccccc1)N(Cc1cc(-c2ccc3ncnc(NC4CC4)c3c2)ccc1Cl)C1CC1` [Example 783, N-(2-chloro-5-(4-(cyclopropylamino)quinazolin-6-yl)benzyl)-N-cyclopropyl benzamide] was tested. Which “% Inhibition of mGluR5 Receptor (pig)” value did it give?
A: 93%

Q: With `CC(C)(C)C(=O)N(Cc1cc(-c2ccc3ncnc(NC4CC4)c3c2)ccc1Cl)C1CC1` [Example 785, N-(2-chloro-5-(4-(cyclopropylamino)quinazolin-6-yl)benzyl)-N-cyclopropyl pivalamide] as the compound, how does the “% Inhibition of mGluR5 Receptor (pig)” value read?
A: 100%

Q: `COc1ccc(S(=O)(=O)N(Cc2cc(-c3ccc4ncnc(NC5CC5)c4c3)ccc2Cl)C2CC2)cc1` [Example 786, N-(2-chloro-5-(4-(cyclopropylamino)quinazolin-6-yl)benzyl)-N-cyclopropyl-4-methoxybenzole sulfonamide] was tested. Which “% Inhibition of mGluR5 Receptor (pig)” value did it give?
A: 95%

Q: With `CCCCC(=O)N(Cc1cc(-c2ccc3ncnc(NC4CC4)c3c2)ccc1Cl)C1CC1` [Example 793, N-(2-chloro-5-(4-(cyclopropylamino)quinazolin-6-yl)benzyl)-N-cyclopropyl pentanamide] as the compound, how does the “% Inhibition of mGluR5 Receptor (pig)” value read?
A: 94%

Q: `O=S(=O)(c1ccc(Cl)cc1Cl)N(Cc1cc(-c2ccc3ncnc(NC4CC4)c3c2)ccc1Cl)C1CC1` [Example 794, 2,4-dichloro-N-(2-chloro-5-(4-(cyclopropylamino)quinazolin-6-yl)benzyl)-N-cyclopropyl benzole sulfonamide] was tested. Which “% Inhibition of mGluR5 Receptor (pig)” value did it give?
A: 93%

Q: For `O=S(=O)(c1ccc(Cl)cc1Cl)N(Cc1cc(-c2ccc3ncnc(NC4CC4)c3c2)ccn1)C1CC1` [Example 796, 2,4-dichloro-N-cyclopropyl-N-((4-(4-(cyclopropylamino)quinazolin-6-yl)pyridin-2-yl)methyl)benzole sulfonamide], which “% Inhibition of mGluR5 Receptor (pig)” value is on record?
A: 78%

Q: How did the “% Inhibition of mGluR5 Receptor (pig)” value turn out when `O=S(=O)(c1ccccc1)N(Cc1cc(-c2ccc3ncnc(NC4CC4)c3c2)ccc1Cl)C1CC1` [Example 799, N-(2-chloro-5-(4-(cyclopropylamino)quinazolin-6-yl)benzyl)-N-cyclopropyl benzole sulfonamide] was run?
A: 92%

Q: `O=S(=O)(c1c(F)c(F)c(F)c(F)c1F)N(Cc1cc(-c2ccc3ncnc(NC4CC4)c3c2)ccc1Cl)C1CC1` [Example 802, N-(2-chloro-5-(4-(cyclopropylamino)quinazolin-6-yl)benzyl)-N-cyclopropyl-2,3,4,5,6-pentafluorobenzole sulfonamide] was tested. Which “% Inhibition of mGluR5 Receptor (pig)” value did it give?
A: 97%

same assay, conditions: 10 μM compound, 5 nM [3H]-MPEP, read-out: % Inhibition of mGluR5 Receptor (pig) [^3H]-MPEP Bond at 10 μM

Q: `Cc1cc2ncnc(NC3CC3)c2cc1-c1cccc(CN(C(=O)c2c(F)c(F)c(F)c(F)c2F)C2CC2)c1` [Example 768, N-cyclopropyl-N-(3-(4-(cyclopropylamino)-7-methylquinazolin-6-yl)benzyl)-2,3,4,5,6-pentafluorobenzamide] was tested. Which inhibition at 10 µM did it give?
A: 88%

Q: How did the inhibition at 10 µM turn out when `Cc1nc(C(=O)N(Cc2cc(-c3ccc4ncnc(NC5CC5)c4c3)ccc2Cl)C2CC2)cs1` [Example 769, N-(2-chloro-5-(4-(cyclopropylamino)quinazolin-6-yl)benzyl)-N-cyclopropyl-2-methylthiazole-4-carboxamide] was run?
A: 83%

Q: For `O=S(=O)(Cc1ccccc1)N(Cc1cc(-c2ccc3ncnc(NC4CC4)c3c2)ccc1Cl)C1CC1` [Example 771, N-(2-chloro-5-(4-(cyclopropylamino)quinazolin-6-yl)benzyl)-N-cyclopropyl-1-phenylmethane sulfonamide], which inhibition at 10 µM is on record?
A: 80%

Q: How did the inhibition at 10 µM turn out when `CC(=O)N(Cc1cc(-c2ccc3ncnc(NC4CC4)c3c2)ccn1)C1CC1` [Example 773, N-cyclopropyl-N-((4-(4-(cyclopropylamino)quinazolin-6-yl)pyridin-2-yl)methyl)acetamide] was run?
A: 74%

Q: With `O=C(c1ccno1)N(Cc1cccc(-c2cc(F)c3ncnc(NC4CC4)c3c2)c1)C1CC1` [Example 775, N-cyclopropyl-N-(3-(4-(cyclopropylamino)-8-fluoroquinazolin-6-yl)benzyl)isoxazole-5-carboxamide] as the compound, how does the inhibition at 10 µM read?
A: 76%

Q: With `Cc1cc(C(=O)N(Cc2cc(-c3ccc4ncnc(NC5CC5)c4c3)ccc2Cl)C2CC2)n(C)n1` [Example 776, N-(2-chloro-5-(4-(cyclopropylamino)quinazolin-6-yl)benzyl)-N-cyclopropyl-1,3-dimethyl-1H-pyrazole-5-carboxamide] as the compound, how does the inhibition at 10 µM read?
A: 55%

Q: How did the inhibition at 10 µM turn out when `O=C(c1cccnc1)N(Cc1cccc(-c2cc(F)c3ncnc(NC4CC4)c3c2)c1)C1CC1` [Example 781, N-cyclopropyl-N-(3-(4-(cyclopropylamino)-8-fluoroquinazolin-6-yl)benzyl)nicotinamide] was run?
A: 67%

Q: `COc1ccc(C(=O)N(Cc2cc(-c3ccc4ncnc(NC5CC5)c4c3)ccc2Cl)C2CC2)cc1OC` [Example 784, N-(2-chloro-5-(4-(cyclopropylamino)quinazolin-6-yl)benzyl)-N-cyclopropyl-3,4-dimethoxybenzamide] was tested. Which inhibition at 10 µM did it give?
A: 56%

Q: `O=S(=O)(c1cccs1)N(Cc1cc(-c2ccc3ncnc(NC4CC4)c3c2)ccn1)C1CC1` [Example 788, N-cyclopropyl-N-((4-(4-(cyclopropylamino)quinazolin-6-yl)pyridin-2-yl)methyl)thiophene-2-sulfonamide] was tested. Which inhibition at 10 µM did it give?
A: 77%

Q: With `O=C(c1ccccc1C(F)(F)F)N(Cc1cccc(-c2cc(F)c3ncnc(NC4CC4)c3c2)c1)C1CC1` [Example 789, N-cyclopropyl-N-(3-(4-(cyclopropylamino)-8-fluoroquinazolin-6-yl)benzyl)-2-(trifluoromethyl)benzamide] as the compound, how does the inhibition at 10 µM read?
A: 84%

Q: `O=C(c1cccc(F)c1)N(Cc1cc(-c2ccc3ncnc(NC4CC4)c3c2)ccc1Cl)C1CC1` [Example 791, N-(2-chloro-5-(4-(cyclopropylamino)quinazolin-6-yl)benzyl)-N-cyclopropyl-3-fluorobenzamide] was tested. Which inhibition at 10 µM did it give?
A: 89%

Q: Which inhibition at 10 µM does the source give for `O=C(c1ccc(F)cc1F)N(Cc1cc(-c2ccc3ncnc(NC4CC4)c3c2)ccc1Cl)C1CC1` [Example 792, N-(2-chloro-5-(4-(cyclopropylamino)quinazolin-6-yl)benzyl)-N-cyclopropyl-2,4-difluorobenzamide] here?
A: 88%

Q: `O=C(c1cccc(F)c1)N(Cc1cc(-c2ccc3ncnc(NC4CC4)c3c2)ccn1)C1CC1` [Example 795, N-cyclopropyl-N-((4-(4-(cyclopropylamino)quinazolin-6-yl)pyridin-2-yl)methyl)-3-fluorobenzamide] was tested. Which inhibition at 10 µM did it give?
A: 73%

Q: `COCC(=O)N(Cc1cccc(-c2cc3c(NC4CC4)ncnc3cc2C)c1)C1CC1` [Example 797, N-cyclopropyl-N-(3-(4-(cyclopropylamino)-7-methylquinazolin-6-yl)benzyl)-2-methoxyacetamide] was tested. Which inhibition at 10 µM did it give?
A: 85%

Q: With `O=C(c1ccc(C(F)(F)F)cc1F)N(Cc1cc(-c2ccc3ncnc(NC4CC4)c3c2)ccc1Cl)C1CC1` [Example 800, N-(2-chloro-5-(4-(cyclopropylamino)quinazolin-6-yl)benzyl)-N-cyclopropyl-2-fluoro-4-(trifluoromethyl)benzamide] as the compound, how does the inhibition at 10 µM read?
A: 91%

Q: For `COCC(=O)N(Cc1cc(-c2ccc3ncnc(NC4CC4)c3c2)ccc1Cl)C1CC1` [Example 801, N-(2-chloro-5-(4-(cyclopropylamino)quinazolin-6-yl)benzyl)-N-cyclopropyl-2-methoxyacetamide], which inhibition at 10 µM is on record?
A: 88%
